Assay results reported in patent US20260109707A1, “HETEROBIFUNCTIONAL COMPOUNDS AND METHODS OF TREATING DISEASE” (Halda Therapeutics OpCo. Inc., priority 2022, published 2026).
Like-named read-outs stand apart in the source and are kept apart here.

How the values were obtained:
[1] = system: T-Rex 293 cell line SC3 cells having increased expression of androgen receptor protein due to exposure to doxycycline; experiment: Cellular growth inhibition assay, T-Rex 293 SC3 cells with doxycycline (CellTiter-Glo, 72 hours); type: cell-based; conditions: T-Rex 293 SC3 cells with increased androgen receptor expression due to doxycycline (10 ng/mL)
In short: (§1)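 Growth inhibition is measured in an inducible AR-expressing T-Rex 293 clone, SC3, cultured with or without 10 ng/mL doxycycline in hormone-depleted medium. Test compounds are applied for 72 hours. GI50 values derive from CellTiter-Glo 2.0 signal fitted by four-parameter regression.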

[2] = system: T-Rex 293 cell line SC3 cells lacking increased expression of androgen receptor protein; experiment: Cellular growth inhibition assay, T-Rex 293 SC3 cells without doxycycline (CellTiter-Glo, 72 hours); type: cell-based; conditions: T-Rex 293 cell line SC3 cells not exposed to doxycycline (lacking increased androgen receptor expression)
In short: as §1

VCaP cells = experiment: Cellular growth inhibition assay for VCaP cells (CellTiter-Glo, 72 hours); type: cell-based, human
In short: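 Luminescent viability signal after 72 h of compound exposure gave GI50 values by four-parameter nonlinear regression. Compounds were added in 0.5% DMSO to cells plated 24 h earlier at 5000/well in DMEM containing 10% FBS.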

[3] = Cellular growth inhibition assay, T-Rex 293 SC cells with doxycycline (CellTiter-Glo, 72 hours); type: cell-based; conditions: T-Rex 293 SC cells with doxycycline (increased progesterone receptor isoform B)
Method: (§2) The following types of cells were prepared for this experiment: (i) a T-Rex 293 cell line having increased expression of progesterone receptor isoform B protein due to exposure to doxycycline and (ii) a T-Rex 293 cell line lacking increased expression of progesterone receptor isoform B protein. Ability of the test compounds to inhibit proliferation of the foregoing cell types was evaluated according to the procedures set forth below.
(§3) The doxycycline-inducible progesterone receptor isoform B protein expressing cell line was established using the following protocol: T-Rex 293 cells were purchased from Invitrogen (Cat #R71007) and transfected using Lipofectamine 2000 with the wild-type progesterone receptor B protein sequence cloned into the pcDNA4/TO vector. Transfected cells were selected using 400 μg/mL Zeocin (Invitrogen Cat #R25001). Following selection, single clones were raised and maintained in Dulbecco's Modified Eagle Medium (DMEM) supplemented with 10% w/w Tetracycline-free fetal bovine serum (FBS) and 250 μg/mL Zeocin. Clones were analyzed for expression of progesterone receptor isoform B protein in the presence and absence of 10 ng/mL doxycycline (Sigma Cat #D9891), and a single doxycycline-inducible clone (hereinafter “SC”) was selected for use in downstream assays.
(§4) The SC cells were seeded on poly-D-lysine coated, black clear-bottom 384-well plates at 2500/well, in 25 μL Phenol Red Free Dulbecco's Modified Eagle Medium (DMEM) supplemented with 10% w/w charcoal-dextran treated fetal bovine serum (FBS) and 1% w/w pen-strep, with or without 10 ng/mL doxycycline. Pen-Strep is a commercially available mixture of penicillin G and streptomycin, which is used in mammalian cell culture media to prevent bacterial contamination. Phenol Red Free Dulbecco's Modified Eagle Medium (DMEM) supplemented with 10% w/w charcoal-dextran treated fetal bovine serum (FBS) and 1% w/w pen-strep, with or without 10 ng/mL doxycycline is herein referred to as Treatment Medium. Following seeding of cells in the plates, the plates were spun at 300×g for 30 seconds, then equilibrated to room temperature for 30 minutes, and then deposited in a humidified tissue culture incubator maintained at 37° C. with 5% CO2.
(§5) At 24 hours after seeding of the cells, dilutions of test compound were prepared in DMSO and dissolved in Treatment Medium, to achieve a final DMSO concentration of 0.5% w/w, thereby providing the Test Compound Solution. A 25 μL aliquot of the Test Compound Solution was added to cells in the well plates. An equal volume of a solution containing DMSO and Treatment Medium was used as a negative control. Following treatment of cells with Test Compound Solution or said equal volume of a solution containing DMSO and Treatment Medium, the plates were spun at 300×g for 30 seconds, and then left in an incubator for 72 hours.
(§6) At the end of the treatment duration, cell viability was quantified with CellTiter-Glo 2.0 reagent (Promega Cat #G9243). For this purpose, plates were equilibrated to room temperature for 30 minutes, and then 25 μL of CellTiter-Glo 2.0 reagent was added to cells in the plate wells. Plates were then agitated on a shaker for two minutes at 500 rpm and subsequently incubated at room temperature for 10 minutes. Following incubation, the plates were spun at 3000×g for 30 seconds, then sealed with an optical adhesive cover, and luminescence readings were measured with an EnVision Plate Reader (Perkin Elmer).
(§7) Data was normalized using zero luminescence for baseline. A four-parameter non-linear regression curve fit was applied to dose-response data in GraphPad Prism data analysis software to determine the half-maximal growth inhibitory concentration (GI50) for each test compound.

[4] = system: T-Rex 293 cell line SC cells lacking increased expression of progesterone receptor isoform B protein; experiment: Cellular growth inhibition assay, T-Rex 293 SC cells without doxycycline (CellTiter-Glo, 72 hours); type: cell-based; conditions: T-Rex 293 SC cells not exposed to doxycycline
Method: as §2, §3, §4, §5, §6, §7

T47D cells = experiment: Cellular growth inhibition assay for T47D cells (CellTiter-Glo, 72 hours); type: cell-based, human; conditions: 72 hours treatment
In short: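 Cells are plated at 3000/well and allowed 24 h before treatment. Test compound in medium containing 0.5% DMSO is then added, with DMSO-only wells as negative control, and plates are incubated 72 h at 37 °C. ATP luminescence (CellTiter-Glo 2.0) is then fitted to four parameters to derive GI50.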

GI50 (VCaP cells; Homo sapiens, VCaP, 72 h) [nM] | GI50 (T47D cells; Homo sapiens, T47D, 72 h) [nM] | GI50 (VCaP cells) [nM] | GI50 (T47D cells) [nM] | Compound | GI50 ([1]; 72 h) [nM] | GI50 ([2]; 72 h) [nM] | GI50 [3] [nM] | GI50 [4] [nM] | GI50 [1] [nM] | GI50 [2] [nM]
< 500 | < 500 |  |  | CCNC(=O)C[C@@H]1N=C(c2ccc(OCCC3CCN(c4ccc(C(=O)N[C@H]5CC[C@H](Oc6ccc(C#N)c(Cl)c6)CC5)nn4)CC3)cc2)c2c(sc(C)c2C)-n2c(C)nnc21 [I-13] | < 500 | < 500 | < 500 | < 500 |  | 
< 500 | < 500 |  |  | CCNC(=O)C[C@@H]1N=C(c2ccc(OCCN3CCN(c4ccc(C(=O)N[C@H]5CC[C@H](Oc6ccc(C#N)c(Cl)c6)CC5)nn4)CC3)cc2)c2c(sc(C)c2C)-n2c(C)nnc21 [I-25] | < 500 | 500 to 1500 | < 500 | 500 to 1500 |  | 
< 500 | < 500 |  |  | CCNC(=O)C[C@@H]1N=C(c2ccc(OC3CCN(c4ccc(C(=O)N[C@H]5CC[C@H](Oc6ccc(C#N)c(Cl)c6)CC5)nn4)CC3)cc2)c2c(sc(C)c2C)-n2c(C)nnc21 [I-26] | < 500 | 500 to 1500 | < 500 | < 500 |  | 
< 500 | < 500 |  |  | CCNC(=O)C[C@@H]1N=C(c2ccc(N3CCN(CC4CCN(c5ccc(C(=O)N[C@H]6CC[C@H](Oc7ccc(C#N)c(Cl)c7)CC6)nn5)CC4)CC3)cc2)c2c(sc(C)c2C)-n2c(C)nnc21 [I-28] | < 500 | 500 to 1500 | < 500 | < 500 |  | 
< 500 | < 500 |  |  | CCNC(=O)C[C@@H]1N=C(c2ccc(C3CCC(OC4CCN(c5ccc(C(=O)N[C@H]6CC[C@H](Oc7ccc(C#N)c(Cl)c7)CC6)nn5)CC4)C3)cc2)c2c(sc(C)c2C)-n2c(C)nnc21 (stereo partly shown) [I-67] | < 500 | < 500 | < 500 | < 500 |  | 
1500 to 3000 | > 3000 |  |  | Cc1sc2c(c1C)C(c1ccc(C3C[C@@H]3CC3CCCN(c4ccc(C(=O)N[C@H]5CC[C@H](Oc6ccc(C#N)c(Cl)c6)CC5)nn4)C3)cc1)=N[C@@H](Cc1ncco1)c1nnc(C)n1-2 (stereo partly shown) [I-203] | < 500 | 500 to 1500 | 500 to 1500 | 500 to 1500 |  | 
< 500 | 500 to 1500 |  |  | Cc1sc2c(c1C)C(c1ccc(OC3CC4(C3)CC3(CCN(c5ccc(C(=O)N[C@H]6CC[C@H](Oc7ccc(C#N)c(Cl)c7)CC6)nn5)CC3)C4)nc1)=N[C@@H](C)c1nnc(C)n1-2 [I-436] | < 500 | > 3000 |  |  |  | 
< 500 | < 500 |  |  | Cc1sc2c(c1C)C(c1ccc(C3CC(N4CCN(c5ccc(C(=O)N[C@H]6CC[C@H](Oc7ccc(C#N)c(Cl)c7)CC6)nn5)CC4)C3)cc1)=N[C@@H](Cc1ncco1)c1nnc(C)n1-2 (stereo partly shown) [I-437] | < 500 | < 500 |  |  |  | 
 |  | < 500 | < 500 | Cc1sc2c(c1C)C(c1ccc(-c3coc(C4CCN(c5ccc(C(=O)N[C@H]6CC[C@H](Oc7ccc(C#N)c(Cl)c7)CC6)nn5)CC4)n3)cc1)=NC(Cc1ncco1)c1nnc(C)n1-2 (stereo partly shown) [I-442] |  |  |  |  | < 500 | < 500

The remaining lines, values behind:

Compound | GI50 (VCaP cells; Homo sapiens, VCaP, 72 h) [nM] | GI50 (T47D cells; Homo sapiens, T47D, 72 h) [nM] | GI50 (VCaP cells) [nM] | GI50 (T47D cells) [nM] | GI50 ([1]; 72 h) [nM] | GI50 ([2]; 72 h) [nM] | GI50 [3] [nM] | GI50 [4] [nM] | GI50 [1] [nM] | GI50 [2] [nM]
Cc1sc2c(c1C)C(c1ccc(CCN3CCCN(c4ccc(C(=O)N[C@H]5CC[C@H](Oc6ccc(C#N)c(Cl)c6)CC5)nn4)CC3)cc1)=N[C@@H](Cc1ncco1)c1nnc(C)n1-2 [I-128] | < 500 | < 500 |  |  | < 500 | < 500 | < 500 | < 500 |  | 
Cc1sc2c(c1C)C(c1ccc(CCCN3[C@H](C)CN(c4ccc(C(=O)N[C@H]5CC[C@H](Oc6ccc(C#N)c(Cl)c6)CC5)nn4)C[C@@H]3C)cc1)=N[C@@H](Cc1ncco1)c1nnc(C)n1-2 [I-129] | < 500 | < 500 |  |  | < 500 | < 500 | < 500 | < 500 |  | 
Cc1sc2c(c1C)C(c1ccc(CCCN3[C@@H](C)CN(c4ccc(C(=O)N[C@H]5CC[C@H](Oc6ccc(C#N)c(Cl)c6)CC5)nn4)C[C@@H]3C)cc1)=N[C@@H](Cc1ncco1)c1nnc(C)n1-2 [I-130] | < 500 | < 500 |  |  | < 500 | < 500 | < 500 | < 500 |  | 
Cc1sc2c(c1C)C(c1ccc(CCC3CC4(CCCC(c5ccc(C(=O)N[C@H]6CC[C@H](Oc7ccc(C#N)c(Cl)c7)CC6)nn5)C4)C3)nc1)=N[C@@H](Cc1ncco1)c1nnc(C)n1-2 (stereo partly shown) [I-438] | < 500 | 500 to 1500 |  |  | < 500 | < 500 |  |  |  | 
Cc1sc2c(c1C)C(c1ccc(CCC3CC4(CCCC(c5ccc(C(=O)N[C@H]6CC[C@H](Oc7ccc(C#N)c(Cl)c7)CC6)nn5)C4)C3)nc1)=N[C@@H](Cc1ncco1)c1nnc(C)n1-2 (stereo partly shown) [I-439] |  |  | 500 to 1500 | 500 to 1500 |  |  |  |  | < 500 | < 500
Cc1sc2c(c1C)C(c1ccc(C(C)(C)CN3CC4(CCCN(c5ccc(C(=O)N[C@H]6CC[C@H](Oc7ccc(C#N)c(Cl)c7)CC6)nn5)C4)C3)cc1)=N[C@@H](Cc1ncco1)c1nnc(C)n1-2 [I-440] | < 500 | 500 to 1500 |  |  | < 500 | 500 to 1500 |  |  |  | 
Cc1sc2c(c1C)C(c1ccc(COC3(C)CC4(CN(c5ccc(C(=O)N[C@H]6CC[C@H](Oc7ccc(C#N)c(Cl)c7)CC6)nn5)C4)C3)cc1)=N[C@@H](Cc1ncco1)c1nnc(C)n1-2 [I-441] | < 500 | < 500 |  |  | < 500 | < 500 |  |  |  | 
